The values that follow come from US9340573B2, “Azaindolines” (Hoffmann-La Roche Inc., priority 2012, dated 2016).

One may read the IC50 as the point on the concentration scale where inhibition reaches its midpoint.

Counter-ions that a name gives are not always drawn. Like-named read-outs stand apart in the source and are kept apart here. Some results are limits rather than exact numbers.

The target of one assay is BIR2 domain of XIAP (Homo sapiens (Human), UniProt P98170, C202A/C213G). As to the kind of experiment: TR-FRET assay for BIR2: inhibition of binding of the XIAP BIR2 domain to Peptide A (SMAC-derived peptide). The protocol: (§1) TR-FRET Assay for BIR2 and BIR3
(§2) The ability of a test compound to inhibit the binding of BIR2 and/or BIR3 domains of the XIAP protein to Peptide A (a SMAC-derived peptide described below) evidences that the test compound acts as a SMAC-mimetic resulting in reactivation of a cell's apoptotic pathway.
(§3) The peptides were labeled with the fluorescent tags FITC or TAMRA and Kd values were determined by fluorescence polarization assay. […] The peptide sequence was derivatized with biotin to provide […]-(ε-biotin)-OH 1:2 TFA as the substrate for the TR-FRET assay.
The XIAP protein sequence was obtained from the SWISS-PROT protein sequence database and the BIR2 and BIR3 domains were derived from that. The sequence of the BIR2 domain used for the TR-FRET assay is […].
(§4) Ten nanomolar of 6× Histidine-tagged BIR2 domain, corresponding to amino acids 124-240 of XIAP, or BIR3 domain, corresponding to amino acids 241-356 of XIAP, was mixed with 20 nM of the peptide […]-(ε-biotin)-OH 1:2 TFA, in the presence of 50 mM Tris-Cl, pH 7.5, 100 mM NaCl, 1 mM dithiothreitol (DTT) and 0.1 mg/mL bovine serum albumin (BSA). Following a […] incubation at 37° C., Europium-Streptavidin and Allophycocyanin conjugated anti-Histidine antibody were added to a final concentration of 1.5 nM and 15 nM, respectively. Time-resolved fluorescence resonance energy transfer (TR-FRET) signals were measured 1 hour later at room temperature. Test compound potency was assessed at 10 serially diluted concentrations. Percentage of inhibition at each concentration was determined to generate an IC50 value for each test compound.

A further assay has as its target BIR3 domain of XIAP (Homo sapiens (Human), UniProt P98170). As to the kind of experiment: TR-FRET assay for BIR3: inhibition of binding of the XIAP BIR3 domain to Peptide A (SMAC-derived peptide). The protocol: as §1, §2, §3
The sequence of the BIR3 domain used for the TR-FRET assay is […]
as §4
For orientation: In TR-FRET formats the signal depends on donor and acceptor labels being close together.

The mark [1] stands for this setting: 6x His-tagged BIR2 domain (aa 124-240 of XIAP), 10 nM, 20 nM Peptide A, TR-FRET, read-out: Ic50 BIR2.
[2] abbreviates: 6x His-tagged BIR3 domain (aa 241-356 of XIAP), 10 nM, 20 nM Peptide A, TR-FRET, read-out: Ic50 BIR3.

Sequence of BIR2 domain of XIAP (P98170 other isoform, or with tags, fused parts or gaps, stated change not applied): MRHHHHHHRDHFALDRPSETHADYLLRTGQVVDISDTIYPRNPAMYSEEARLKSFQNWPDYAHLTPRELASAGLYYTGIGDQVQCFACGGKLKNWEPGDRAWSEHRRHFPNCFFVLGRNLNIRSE
Sequence of BIR3 domain of XIAP (P98170 other isoform, or with tags, fused parts or gaps): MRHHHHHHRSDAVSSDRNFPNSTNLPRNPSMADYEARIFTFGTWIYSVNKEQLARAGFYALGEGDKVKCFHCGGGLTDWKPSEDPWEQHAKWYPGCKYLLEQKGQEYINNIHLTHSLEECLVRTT

For `CN[C@@H](C)C(=O)N[C@H](C(=O)N1c2ncccc2C[C@H]1CNC(=O)c1ccccc1)C(C)C` [Example 1, N—{(S)-1-[(S)-3-Methyl-2-((S)-2-methylamino-propionylamino)-butyryl]-2,3-dihydro-1H-pyrrolo[2,3-b]pyridin-2-ylmethyl}-benzamide, hydrochloride], the IC50 on BIR2 domain of XIAP (setting [1]) turned out to be 0.888 µM; at BIR3 domain of XIAP (setting [2]), 53 µM.
On to `CN[C@@H](C)C(=O)N[C@H](C(=O)N1c2ncccc2CC1CNC(C)=O)C(C)C` (stereo partly drawn) [Example 2, (S)-N-{(S)-1-[2-(Acetylamino-methyl)-2,3-dihydro-pyrrolo[2,3-b]pyridine-1-carbonyl]-2-methyl-propyl}-2-methylamino-propionamide hydrochloride], for which the values for the IC50 at BIR2 domain of XIAP (read-out: Ic50 BIR2) and at BIR3 domain of XIAP (read-out: Ic50 BIR3) were 4.67 µM and greater than 54.8 µM, respectively.
As to `CNC(=O)NCC1Cc2cccnc2N1C(=O)[C@@H](NC(=O)[C@H](C)NC)C(C)C` (stereo partly drawn) [Example 3, (S)-2-Methylamino-N-((S)-2-methyl-1-{2-[(3-methyl-ureido)-methyl]-2,3-dihydro-pyrrolo[2,3-b]pyridine-1-carbonyl}-propyl)-propionamide hydrochloride], the figures for the IC50 on BIR2 domain of XIAP (setting [1]) and on BIR3 domain of XIAP (setting [2]) were 4.88 µM and greater than 54.8 µM, respectively.
For `CN[C@@H](C)C(=O)N[C@H](C(=O)N1c2ncccc2C[C@H]1CNC(=O)Cc1ccccc1)C(C)C` [Example 4, (S)-2-Methylamino-N-{(S)-2-methyl-1-[(S)-2-(phenylacetylamino-methyl)-2,3-dihydro-pyrrolo[2,3-b]pyridine-1-carbonyl]-propyl}-propionamide hydrochloride] the same measures were 1.57 µM and greater than 54.8 µM.
For `CN[C@@H](C)C(=O)N[C@H](C(=O)N1c2ncccc2C[C@H]1CNC(=O)OC)C(C)C` [Example 5, {(S)-1-[(S)-3-Methyl-2-((S)-2-methylamino-propionylamino)-butyryl]-2,3-dihydro-1H-pyrrolo[2,3-b]pyridin-2-ylmethyl}-carbamic acid methyl ester hydrochloride] the same measures were 1.67 µM and greater than 54.8 µM.
For `CN[C@@H](C)C(=O)N[C@H](C(=O)N1c2ncccc2C[C@H]1CNC(=O)N(C)C)C(C)C` [Example 6, (S)-N-{(S)-1-[(S)-2-(3,3-Dimethyl-ureidomethyl)-2,3-dihydro-pyrrolo[2,3-b]pyridine-1-carbonyl]-2-methyl-propyl}-2-methylamino-propionamide hydrochloride] the same measures were 6.17 µM and greater than 54.8 µM.
As to `CN[C@@H](C)C(=O)N[C@H](C(=O)N1c2ncccc2C[C@H]1CNC(=O)Nc1ccccc1)C(C)C` [Example 7, (S)-2-Methylamino-N-((S)-2-methyl-1-{(S)-2-[(3-phenyl-ureido)-methyl]-2,3-dihydro-pyrrolo[2,3-b]pyridine-1-carbonyl}-propyl)-propionamide hydrochloride], the values for the IC50 at BIR2 domain of XIAP (setting [1]) and on BIR3 domain of XIAP (setting [2]) were 1.54 µM and greater than 54.8 µM, respectively.
For `CN[C@@H](C)C(=O)N[C@H](C(=O)N1c2ncccc2C[C@H]1CNC(=O)C(C)c1ccccc1)C(C)C` (stereo partly drawn) [Example 8, (S)-2-Methylamino-N-((S)-2-methyl-1-{(S)-2-[(2-phenyl-propionylamino)-methyl]-2,3-dihydro-pyrrolo[2,3-b]pyridine-1-carbonyl}-propyl)-propionamide hydrochloride] the same measures were 2.56 µM and greater than 54.8 µM.
With `CN[C@@H](C)C(=O)N[C@H](C(=O)N1c2ncccc2C[C@H]1CNS(C)(=O)=O)C(C)C` [Example 9, (S)-N-{(S)-1-[(S)-2-(Methanesulfonylamino-methyl)-2,3-dihydro-pyrrolo[2,3-b]pyridine-1-carbonyl]-2-methyl-propyl}-2-methylamino-propionamide hydrochloride], the IC50 on BIR2 domain of XIAP (setting [1]) is 1.24 µM; at BIR3 domain of XIAP (setting [2]), greater than 54.8 µM.
As for `CN[C@@H](C)C(=O)N[C@H](C(=O)N1c2ncccc2C[C@H]1CNS(=O)(=O)c1ccccc1)C(C)C` [Example 10, (S)-N-{(S)-1-[(S)-2-(Benzenesulfonylamino-methyl)-2,3-dihydro-pyrrolo[2,3-b]pyridine-1-carbonyl]-2-methyl-propyl}-2-methylamino-propionamide hydrochloride], the IC50 on BIR2 domain of XIAP (setting [1]) was 0.82 µM; at BIR3 domain of XIAP (setting [2]), greater than 54.8 µM.
The matching figures for `CN[C@@H](C)C(=O)N[C@H](C(=O)N1c2ncccc2C[C@H]1CNC(=O)OCc1ccccc1)C(C)C` [Example 11, {(S)-1-[(S)-3-Methyl-2-((S)-2-methylamino-propionylamino)-butyryl]-2,3-dihydro-1H-pyrrolo[2,3-b]pyridin-2-ylmethyl}-carbamic acid benzyl ester]: 1.05 µM and greater than 54.8 µM.
On to `CN[C@@H](C)C(=O)N[C@H](C(=O)N1c2ncccc2C[C@H]1CNC(=O)Oc1ccccc1)C(C)C` [Example 12, {(S)-1-[(S)-3-Methyl-2-((S)-2-methylamino-propionylamino)-butyryl]-2,3-dihydro-1H-pyrrolo[2,3-b]pyridin-2-ylmethyl}-carbamic acid phenyl ester hydrochloride], for which the figures for the IC50 at BIR2 domain of XIAP and on BIR3 domain of XIAP were 1.62 µM and greater than 54.8 µM, respectively.
With `CN[C@@H](C)C(=O)N[C@H](C(=O)N1c2ncccc2C[C@H]1CNc1ccccc1)C(C)C` [Example 13, (S)-2-Methylamino-N—[(S)-2-methyl-1-((S)-2-phenylaminomethyl-2,3-dihydro-pyrrolo[2,3-b]pyridine-1-carbonyl)-propyl]-propionamide, hydrochloride], the IC50 at BIR2 domain of XIAP (setting [1]) was found to be 0.307 µM; on BIR3 domain of XIAP (setting [2]), 5.34 µM.
On to `CN[C@@H](C)C(=O)N[C@H](C(=O)N1c2ncccc2C[C@H]1CNc1ccc2ccccc2c1)C(C)C` [Example 14, (S)-2-methylamino-N—{(S)-2-methyl-1-[(S)-2-(naphthalen-2-ylaminomethyl)-2,3-dihydro-pyrrolo[2,3-b]pyridine-1-carbonyl]-propyl}-propionamide hydrochloride], for which the IC50 was 0.506 µM on BIR2 domain of XIAP (setting [1]) and 3.95 µM at BIR3 domain of XIAP (setting [2]).
